The text below walks through data of patent US5783574A, “Imidazolylakyl derivatives of imidazo [5,1-c][1,4]benzoxazin-1-one process for their preparation” (Pharmacia & Upjohn S.p.A., priority 1994, dated 1998).

One assay deals with T1, 5HT3 receptor (Rattus norvegicus, UniProt P35563).
T1 construct: evoked by 5-HT in the anesthetised rat; from tissue; host or cells: whole anaesthetised rat (by own knowledge: cardiopulmonary vagal afferents)
T1 sequence (P35563 24-483): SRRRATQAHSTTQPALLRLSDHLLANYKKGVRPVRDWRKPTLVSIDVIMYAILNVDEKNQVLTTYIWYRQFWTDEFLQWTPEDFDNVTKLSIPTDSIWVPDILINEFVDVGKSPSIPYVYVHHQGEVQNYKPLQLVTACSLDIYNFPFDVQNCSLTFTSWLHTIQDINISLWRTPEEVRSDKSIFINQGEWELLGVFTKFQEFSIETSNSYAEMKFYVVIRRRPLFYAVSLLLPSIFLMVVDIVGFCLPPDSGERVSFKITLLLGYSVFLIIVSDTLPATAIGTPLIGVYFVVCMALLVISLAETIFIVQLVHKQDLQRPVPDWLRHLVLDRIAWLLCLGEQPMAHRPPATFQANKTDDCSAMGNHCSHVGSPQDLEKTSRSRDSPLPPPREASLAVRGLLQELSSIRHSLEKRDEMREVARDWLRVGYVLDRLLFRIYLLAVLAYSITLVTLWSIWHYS
The experiment in a line: inhibition of the von Bezold-Jarisch reflex (chemoreflex) evoked by 5-HT in the anesthetised rat. Format: in vivo. Particulars: anesthetized rat, 5-HT 30 μg/kg i.v.; for % inhibition of the von Bezold-Jarisch reflex elicited by 5-HT: compound 100 μg/kg i.v., N=6, mean; for ED50: iv, limits printed on the line below. As for the experimental part:
Pharmacol. 326, 36-44 (1984).
Inhibition of the von Bezold-Jarisch reflex
elicited by 5-HT (30 μg/kg i.v.) by FCE
compounds in the anesthetized rat. Values are
mean ± in S.E.M. from N animals

Assay [1] has as its target T2, 5-HT3 binding sites in rat brain cortical membranes (Rattus norvegicus, UniProt P35563).
T2 construct: from tissue; host or cells: rat entorhinal cortex membranes
T2 sequence (P35563 24-483): T1 sequence (P35563 24-483)
The assay is described as follows: inhibition of 3H-BRL 43694 (Granisetron) binding in rat entorhinal cortex membranes. Particulars: read-out: 5-HT3 binding affinity, 3H-BRL 43694 IC50. The source says:
[^3 H]-BRL 43694 (Granisetron) is a specific ligand for 5-HT3 binding sites in rat brain cortical membranes: Biochem. Pharmac. 38, 1693-1695, 1989.
The following Table II summarizes the activity data obtained in this in-vitro test for two representative compounds of the invention in comparison with compound A, i.e. a close chemically related compound falling within U.S. Pat. No. 4,134,974.
5-HT3 binding affinity for rat entorhinal

Structures can show the parent of a compound that is named as a salt.

With `Cc1[nH]cnc1CN1CC2COc3ccc(Cl)cc3N2C1=O` (stereo not shown) [FCE 28609, 2,3,3a,4-tetrahydro-8-chloro-2-(5-methyl-1H-imidazol-4-yl)methyl-1H-imidazo[5,1-c][1,4]benzoxazin-1-one], on 5HT3 receptor, the “% inhibition of the von Bezold-Jarisch reflex elicited by 5-HT” value stood at 97.5% and the ED50 stood at 0.00818 mg/kg. Besides, the IC50 in assay [1] stood at 6 nM.
Turning to `Cc1nccn1CCN1CC2COc3ccccc3N2C1=O` (stereo not shown) [Compound A, 2,3,3a,4tetrahydro-2-[2(2-methyl-imidazol-1-yl)ethyl1H-imidazo[5,1c][1,4]enzoxazin1-one hydrochloride, reference compound], the IC50 in assay [1] came to 1210 nM.
`Cc1[nH]cnc1CN1CC2COc3ccccc3N2C1=O` (stereo not shown) [FCE 28158, 2,3,3a,4-tetrahydro-2-(5-methyl-1H-imidazol-4-yl)methyl-1H-imidazo[5,1-c][1,4]benzoxazin-1-one]: on 5HT3 receptor, the “% inhibition of the von Bezold-Jarisch reflex elicited by 5-HT” value stood at 82% and it took a dose of 0.0236 mg/kg to reach the 50% effect level (ED50). Besides, the 50% inhibitory concentration (IC50) in assay [1] came to 76 nM.
